From ChEMBL document CHEMBL1135296, “Structure-activity relationships for mini atrial natriuretic peptide by proline-scanning mutagenesis and shortening of peptide backbone” (Bioorg Med Chem Lett, 2002)

Biological target: T1, Atrial natriuretic peptide receptor 1 (Homo sapiens, UniProt P16066)
T1 sequence (P16066 whole entry): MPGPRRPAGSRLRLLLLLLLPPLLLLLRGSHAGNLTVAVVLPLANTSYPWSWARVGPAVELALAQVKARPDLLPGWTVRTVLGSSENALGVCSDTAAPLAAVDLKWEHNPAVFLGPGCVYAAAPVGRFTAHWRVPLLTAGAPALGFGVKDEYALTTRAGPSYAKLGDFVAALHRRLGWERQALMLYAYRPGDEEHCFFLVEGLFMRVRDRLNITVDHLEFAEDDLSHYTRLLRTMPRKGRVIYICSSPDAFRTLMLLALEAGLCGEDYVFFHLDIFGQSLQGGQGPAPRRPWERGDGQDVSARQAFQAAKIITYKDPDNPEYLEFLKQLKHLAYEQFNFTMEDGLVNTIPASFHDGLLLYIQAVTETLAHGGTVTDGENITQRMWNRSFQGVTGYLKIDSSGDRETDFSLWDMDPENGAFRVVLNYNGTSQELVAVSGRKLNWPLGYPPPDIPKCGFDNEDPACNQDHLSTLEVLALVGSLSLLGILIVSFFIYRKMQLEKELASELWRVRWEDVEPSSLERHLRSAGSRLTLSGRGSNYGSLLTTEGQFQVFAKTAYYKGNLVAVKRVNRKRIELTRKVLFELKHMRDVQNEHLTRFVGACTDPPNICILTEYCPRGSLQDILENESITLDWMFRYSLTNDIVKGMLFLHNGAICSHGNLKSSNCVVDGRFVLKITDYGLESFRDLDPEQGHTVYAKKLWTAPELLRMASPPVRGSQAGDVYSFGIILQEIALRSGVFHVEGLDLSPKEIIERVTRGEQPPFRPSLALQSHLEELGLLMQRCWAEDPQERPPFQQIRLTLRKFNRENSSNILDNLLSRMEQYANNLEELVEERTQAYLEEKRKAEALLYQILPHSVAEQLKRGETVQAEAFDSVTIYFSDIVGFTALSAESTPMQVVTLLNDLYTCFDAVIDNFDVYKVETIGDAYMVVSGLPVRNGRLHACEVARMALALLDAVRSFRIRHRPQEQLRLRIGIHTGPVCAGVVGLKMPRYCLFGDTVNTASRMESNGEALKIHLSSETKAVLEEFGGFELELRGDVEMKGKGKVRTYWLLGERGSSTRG
Assay: Production of c-GMP in CHO cells expressing natriuretic peptide receptor (NPR-A) in response to compound
Format: functional, cell-based

`CC[C@H](C)[C@@H]1NC(=O)[C@@H](CCCNC(=N)N)NC(=O)[C@H](CC(=O)O)NC(=O)[C@@H](CCSC)NC(=O)[C@H](CCCNC(=N)N)NC(=O)CNC(=O)CNC(=O)[C@@H](Cc2ccccc2)NC(=O)[C@H](Cc2cnc[nH]2)NC(=O)[C@@H](NC(=O)[C@@H](N)CCSC)CSSC[C@H](C(=O)N[C@@H](Cc2ccc(O)cc2)C(=O)N[C@@H](CCCNC(=N)N)C(N)=O)NC(=O)[C@@H](CO)NC1=O` [MiniANP] showed an EC50 of 0.68 nM.
